Numbered stars: 1 amine (or outer) side, 2 acyl side, 3 side chain; on linkers, the order of the positions; unused ones are H or OH. Bridge positions count the residues as written; N and C are the ends. Square brackets hold non-standard residues; d marks the D form. Peptide text beside a SMILES is read from it. ξ: configuration not given here. ξαMeNle(6-ylidene) = CC(CCCC=[*:3])(N[*:1])C(=O)[*:2]; X1 = CC(CCCCCCC=[*:3])(N[*:1])C(=O)[*:2]; R8 = C=CCCCCCC[C@@](C)(N)C(=O)O; S5 = C=CCCC[C@](C)(N)C(=O)O
Tests used:
Assay type in all cases: cell-based
NCI-H187 = conditions: 72 h
Description: NCI-H187, epithelial (small cell lung cancer, SCLC), ATCC-CRL-5804;
(§1) Cell line MCF-7 was cultured in incubator under CO2 (6%) at 37° C. in DMEM high glucose (Dulbecco's Modified Eagle Solution, Gibco-BRL 31966-21) medium with 10% fetal bovine serum inactivated (FBS) (Gibco-BRL 10106-169). Cell lines HL-60, NCI-H524, NCI-H526, NCI-H69, NCI-H82, NCI-H187 and H5B were cultured in an incubator at 37° C. in RPMI-1640 (Sigma R8758) medium with 10% of fetal bovine serum inactivated (FBS) and 2 mM glutamine (Sigma G7513). Cell line NCI-H510A was cultured in incubator in F12K medium with 10% of fetal bovine serum inactivated (FBS). Cell line GBM-18 and GBM-27 were cultured in incubator under CO2 (6%) at 37° C. in complete medium (Neurobasal+B27+Glutamax+Growth factors).
(§2) During the amplification step and the assays, adherent cells were rinsed with DPBS (Dulbecco's Phosphate Buffered Saline, Sigma D1283) three times and afterward treated for 5 minutes with trypsin ([…]) (Gibco-BRL, 15400054) in solution of DPBS at 37° C., and, once detached, transferred in the culturing medium. No-adherent cells were centrifuged and transferred in the culturing medium. Cells were counted in a Neubauer chamber after labelling with Tripan-Blue.
(§3) MCF-7, NCI-H187, NCI-H69, NCI-H526 and H5B cells were seeded at a density of 5000 cells/well; NCI-H524 and NCI-H82 were seeded at a density of 2500 cells/well; HL-60 and NCI-H510A at 10000 cells/well in 100 μl of medium in 96 well plates. After 24 h, the compounds to be tested were added to calculate the dose/response curve at the starting concentration of 100 μM with serial dilutions (1:1). Controls were the untreated cells. Each experiment was performed in triplicate.
(§4) Cells were incubated during 72 h in incubator under CO2 atmosphere at 37° C. Cell viability was measured by means of MTT (3-(4,5-dimethylthiazol-2-yl)-2,5-diphenyltetrazolium bromide) assay, Alamar Blue® (Biosource DAL1100) and Hexosaminidase activity test, consecutively, following manufacturer instructions.
(§5) MTT: 1. Stock solution of MTT (475989 Calbiochem) was 5 mg/ml in PBS 1×. As negative control (experiment noise) 3 wells were treated with 20 μl/well of a solution of SDS 10% in H2O. The same control was used for Alamar Blue/Hexosaminidase. 10 μl/well of MTT solution were added and the plate was incubated for 3-4 hr. The medium was discarded and 100 μl of extracting buffer (PBS 1×, 15% SDS, 50% […] N,N-Dimethylformamide, pH 4,7) were added to each well. Plates were incubated for 16 h at room temperature under orbital shaking. Absorbance at 570 nm was finally measured.
(§6) Alamar Blue: 10 μl Alamar Blue solution was added to each well and the plates were incubated for […] in the incubator. Fluorescence ratio at 535/590 (excitation/emission) was measured in Cytofluor (Millipore) fluorimeter. Blank control was determined by lysis of untreated cells with con 2% of Triton X100, right before adding Alamar Blue solution.
(§7) Hexosaminidase activity test: after Alamar Blue lecture, medium was discarded and plates were rinsed once with PBS. 60 μl hexosaminidase substrate (p-nitrophenol-N-acetyl-beta-D-glucosamide 7.5 mM [Sigma N-9376], sodium citrate 0.1 M, pH 5.0, 0.25% Triton X-100) was added to each well and the plates were incubated at 37° C. for 2-5 h, according to the cell type (hexosaminidase activity changes according to the cell type). […] Blank control was the same as described before.
(§8) Data analysis was performed calculating the percentage of cell viability normalized vs. the values of negative control, which was considered equal to 100%. The dose/response curve was fitted through the sigmoidal equation dose-response (variable slope) and the EC50 values were calculated as follow: Y=Bottom+(Top−Bottom)/(1+10^{[(Log EC50−X)*HillSlope]},

cancer cell lines = assay: Inhibition of cancer cell proliferation, general statements
Description: as §3, §4, §8

NCI-H82 = conditions: 72 h
Description: NCI-H82, epithelial (small cell lung cancer, SCLC), ATCC-CRL-5811;
as §1, §2, §3, §4, §5, §6, §7, §8

NCI-H510A = conditions: 72 h
Description: NCI-510A, epithelial (small cell lung cancer, SCLC), ATCC-HBT-124; and Hepatocytes (normal liver), from a donor was provided by Foundation DTI-Donation & Transplantation Institute from surgical wastes and from organs not suitable for transplantation
as §1, §2, §3, §4, §5, §6, §7, §8

EC50 (NCI-H187)	EC50 (NCI-H82)	EC50 (NCI-H510A)	SMILES	inhibition of cancer cell proliferation (in words) (cancer cell lines)
~12.5 µM			CC(C)C[C@H](NC(=O)[C@H](CCCCN)NC(=O)[C@@H](NC(=O)[C@@H](N)CCCNC(=N)N)C(C)C)C(=O)N[C@H](C(=O)N[C@@H](CC(N)=O)C(=O)N[C@@H](CC(C)C)C(=O)N[C@]1(C)CCCCCCC=CCCC[C@@](C)(C(=O)N[C@H](C(=O)N2CCC[C@H]2C(N)=O)C(C)C)NC(=O)[C@H](CCC(=O)O)NC(=O)[C@H](CCCNC(=N)N)NC(=O)[C@H](CC(C)C)NC(=O)[C@H]([C@@H](C)O)NC(=O)[C@H](CCC(N)=O)NC(=O)[C@H](Cc2ccccc2)NC1=O)C(C)C [IDP-H14-Q9] (H-RVKLVNL[R8]FQTLRE[S5]VP-NH2; staple 8-15; N-terminus assumed)	active
~7.5 µM	~7.5 µM	~7.5 µM	CC(C)C[C@H](NC(=O)[C@H](CCCCN)NC(=O)[C@@H](NC(=O)[C@@H](N)CCCNC(=N)N)C(C)C)C(=O)N[C@H](C(=O)N[C@@H](CC(N)=O)C(=O)N[C@@H](CC(C)C)C(=O)NC1(C)CCCCCCC=CCCCC(C)(C(=O)N[C@H](C(=O)N2CCC[C@H]2C(N)=O)C(C)C)NC(=O)[C@H](C)NC(=O)[C@H](CCCNC(=N)N)NC(=O)[C@H](CC(C)C)NC(=O)[C@H]([C@@H](C)O)NC(=O)[C@H](C)NC(=O)[C@H](Cc2ccccc2)NC1=O)C(C)C (stereo partly drawn) [IDP-H14-A12] (H-RVKLVNL[X1]FATLRA[ξαMeNle(6-ylidene)]VP-NH2; staple 8-15; N-terminus and C-terminus assumed)	active
~7.5 µM	~7.5 µM	~7.5 µM	CC(C)C[C@H](NC(=O)[C@H](CCCCN)NC(=O)[C@@H](NC(=O)[C@H](CCCNC(=N)N)NC(=O)[C@H](CCCNC(=N)N)NC(=O)[C@H](CCCNC(=N)N)NC(=O)[C@H](CCCNC(=N)N)NC(=O)[C@H](CCCNC(=N)N)NC(=O)[C@H](CCCNC(=N)N)NC(=O)[C@H](CCCNC(=N)N)NC(=O)[C@@H](N)CCCNC(=N)N)C(C)C)C(=O)N[C@H](C(=O)N[C@@H](CC(N)=O)C(=O)N[C@@H](CC(C)C)C(=O)NC1(C)CCCCCCC=CCCCC(C)(C(=O)N[C@H](C(=O)N2CCC[C@H]2C(N)=O)C(C)C)NC(=O)[C@H](CCC(=O)O)NC(=O)[C@H](CCCNC(=N)N)NC(=O)[C@H](CC(C)C)NC(=O)[C@H]([C@@H](C)O)NC(=O)[C@H](C)NC(=O)[C@H](Cc2ccccc2)NC1=O)C(C)C (stereo partly drawn) [IDP-H14-CPP] (H-RRRRRRRRVKLVNL[X1]FATLRE[ξαMeNle(6-ylidene)]VP-NH2; staple 15-22; N-terminus and C-terminus assumed)	
~7.5 µM	~7.5 µM	~7.5 µM	CC(C)C[C@@H]1NC(=O)[C@H](C)NC(=O)[C@H](CCC(N)=O)NC(=O)[C@H](Cc2ccccc2)NC(=O)C(C)(NC(=O)[C@H](CC(C)C)NC(=O)[C@H](CC(N)=O)NC(=O)[C@@H](NC(=O)[C@H](CC(C)C)NC(=O)[C@H](CCCCN)NC(=O)[C@@H](NC(=O)[C@@H](N)CCCNC(=N)N)C(C)C)C(C)C)CCCCCCC=CCCCC(C)(C(=O)N[C@H](C(=O)N2CCC[C@H]2C(N)=O)C(C)C)NC(=O)[C@H](CCC(N)=O)NC(=O)[C@H](CCCNC(=N)N)NC1=O (stereo partly drawn) [IDP-H14-H2-01] (H-RVKLVNL[X1]FQALRQ[ξαMeNle(6-ylidene)]VP-NH2; staple 8-15; N-terminus and C-terminus assumed)	active
~7.5 µM	~7.5 µM	~12.5 µM	CC(C)C[C@H](NC(=O)[C@H](CCCCN)NC(=O)[C@@H](NC(=O)[C@@H](N)CCCNC(=N)N)C(C)C)C(=O)N[C@H](C(=O)N[C@@H](CC(N)=O)C(=O)N[C@@H](CC(C)C)C(=O)NC1(C)CCCCCCC=CCCCC(C)(C(=O)N[C@H](C(=O)N2CCC[C@H]2C(N)=O)C(C)C)NC(=O)[C@H](CCC(N)=O)NC(=O)[C@H](CCCNC(=N)N)NC(=O)[C@H](CC(C)C)NC(=O)[C@H]([C@@H](C)O)NC(=O)[C@H](C)NC(=O)[C@H](Cc2ccccc2)NC1=O)C(C)C (stereo partly drawn) [IDP-H14-Q13] (H-RVKLVNL[X1]FATLRQ[ξαMeNle(6-ylidene)]VP-NH2; staple 8-15; N-terminus and C-terminus assumed)	active
~7.5 µM	~7.5 µM	~7.5 µM	CC(C)C[C@@H]1NC(=O)[C@H](C)NC(=O)[C@H](C)NC(=O)[C@H](Cc2ccccc2)NC(=O)[C@](C)(NC(=O)[C@H](CC(C)C)NC(=O)[C@H](CC(N)=O)NC(=O)[C@@H](NC(=O)[C@H](CC(C)C)NC(=O)[C@H](CCCCN)NC(=O)[C@@H](NC(=O)[C@@H](N)CCCNC(=N)N)C(C)C)C(C)C)CCCCCCC=CCCC[C@@](C)(C(=O)N[C@H](C(=O)N2CCC[C@H]2C(N)=O)C(C)C)NC(=O)[C@H](CCC(=O)O)NC(=O)[C@H](CCCNC(=N)N)NC1=O [IDP-H14-A09] (H-RVKLVNL[R8]FAALRE[S5]VP-NH2; staple 8-15; N-terminus assumed)	active
~7.5 µM	~7.5 µM	~7.5 µM	CC(C)C[C@H](NC(=O)[C@H](CCCCN)NC(=O)[C@@H](NC(=O)[C@@H](N)CCCNC(=N)N)C(C)C)C(=O)N[C@H](C(=O)N[C@@H](CC(N)=O)C(=O)N[C@@H](CC(C)C)C(=O)NC1(C)CCCCCCC=CCCCC(C)(C(=O)N[C@H](C(=O)N[C@@H](CCC(N)=O)C(N)=O)C(C)C)NC(=O)[C@H](CCC(=O)O)NC(=O)[C@H](CCCNC(=N)N)NC(=O)[C@H](CC(C)C)NC(=O)[C@H]([C@@H](C)O)NC(=O)[C@H](C)NC(=O)[C@H](Cc2ccccc2)NC1=O)C(C)C (stereo partly drawn) [IDP-H14-Q15] (H-RVKLVNL[X1]FATLRE[ξαMeNle(6-ylidene)]VQ-NH2; staple 8-15; N-terminus and C-terminus assumed)	active
~10 µM	~7 µM		CC(C)C[C@H](NC(=O)[C@H](CC(N)=O)NC(=O)[C@@H](NC(=O)[C@H](CC(C)C)NC(=O)[C@H](CCCCN)NC(=O)[C@@H](NC(=O)[C@H](CCCNC(=N)N)NC(=O)[C@H](CCCNC(=N)N)NC(=O)[C@H](CCCNC(=N)N)NC(=O)[C@H](CCCNC(=N)N)NC(=O)[C@H](CCCNC(=N)N)NC(=O)[C@H](CCCNC(=N)N)NC(=O)[C@H](CCCNC(=N)N)NC(=O)[C@@H](N)CCCNC(=N)N)C(C)C)C(C)C)C(=O)NCC(=O)N[C@@H](Cc1ccccc1)C(=O)N[C@@H](C)C(=O)N[C@H](C(=O)N[C@@H](CC(C)C)C(=O)N[C@@H](CCCNC(=N)N)C(=O)N[C@@H](CCC(=O)O)C(=O)N[C@@H](Cc1c[nH]cn1)C(=O)N[C@H](C(=O)N1CCC[C@H]1C(N)=O)C(C)C)[C@@H](C)O [LH02] (H-RRRRRRRRVKLVNLGFATLREHVP-NH2; N-terminus and C-terminus assumed)	

— US11440939B2, “Anticancer peptides” (IDP DISCOVERY PHARMA, S.L., priority 2017, dated 2022)
